In brackets after ≈: the same amount, converted by molar mass. Where a name gives a salt, the structure may show the parent alone.
How the values were obtained:
[1] = tested on: human colorectal cancer cell strain HCT 116; assay: Cell growth inhibition test, HCT 116; format: cell-based; conditions: 72 hours, read-out: HCT116, 50% Growth Inhibition Concentration (IC50 value)
Experimental: (§1) Cell Growth Inhibition Test
(§2) With respect to the compounds relating to the present invention and the known compound (BAY 43-9006), cell growth inhibition activity was measured.
(§3) A sample compound was in-series diluted with dimethyl sulfoxide, and then was 1/50 diluted with a Ca^2+- and Mg^2+-free phosphate-bufferized physiological saline and its 20 μL was poured to a 96-well plate. […] Each of these cell suspensions was dividedly poured to the sample added plate in 180 μL/well and cultured in a 5% carbon dioxide incubator at 37° C. After 72 hours, 20 μL of WST-(HCT 116, a product of Dojin) or WST-1 (HUVEC, a product of Roche diagnostics) was added thereto to each well and the absorbance at 450 nm (reference wavelength: 650 nm) was measured. From the growth inhibition ratio of addition of the sample compound to no-addition of the sample compound as a reference, the 50% growth inhibition IC50) of the sample compound was calculated.
(§4) With respect to the group of representative compounds of the present invention, the IC50 values of HCT 116 and HUVEC (VEGF nondependent growth and VEGF dependent growth) are shown in Tables 5-1 to 5-3.

[2] = tested on: VEGF non-dependent human umbilical vein endothelial cells (HUVEC); assay: Cell growth inhibition test, VEGF non-dependent HUVEC; format: cell-based; conditions: 72 hours, WST-1, read-out: HUVEC (VEGF Nondependence), 50% Growth Inhibition Concentration (IC50 value)
Experimental: as §1, §2, §3, §4

VEGF dependent HUVEC = assay: Cell growth inhibition test, VEGF dependent HUVEC; format: cell-based; conditions: Homo sapiens, 20 ng/mL of VEGF, 72 hours, WST-1, read-out: HUVEC (VEGF Dependence), 50% Growth Inhibition Concentration (IC50 value)
Experimental: as §1, §2, §3, §4

[3] = biological target: T1, recombinant Raf-1 protein (activated type GST-Raf-1) (Homo sapiens, UniProt P04049); assay: RAF-1 enzyme inhibition test (33P incorporation into MEK 1 protein); format: biochemical; conditions: 10 μM ATP, GST-MEK1 substrate, 30° C., 45 minutes; read-out: Raf-1 Enzyme Inhibition, 50% Enzyme Inhibition Concentration (IC50 value)
T1 construct: fused on or other part: GST tag fused to Raf-1
Experimental: RAF-1 Enzyme Inhibition Test
With respect to the compounds relating to the present invention and the known compound (BAY 43-9006):
[drawing 660] the Raf-1 protein inhibition activity was measured. The enzymatic reaction was measured by incorporation of ^33P-phosphoric acid into MEK 1 protein by a recombinant Raf-1 protein. The activity was measured by preparing 50 μL of a reaction solution containing a dimethyl sulfoxide solution of the compound relating to the present invention or the compound BAY 43-9006 at a varied concentration [as the final concentration, the reaction solution containing […] of TRIS hydrochloric buffer (pH 7.5), 1 mM of dithiothreitol, 100 mM of sodium chloride, 10 mM of potassium fluoride, 1 mM of sodium vanadate, 10 mM of magnesium chloride, 10 μM of adenosine triphosphate (ATP, containing ^33P-ATP of 12580Bq), 2 μg of GST-MEK1 and 25 ng of an activated type GST-Raf-1]; keeping the reaction solution at 30° C. for 45 minutes; adding 100% trichloroacetic acid to the reaction solution in an amount twice the volume of the reaction solution to precipitate a proteinous component; recovering the precipitate on a glass filter; and measuring the radioactivity of the recovered product. The 50% inhibition concentration (IC50) was obtained from the inhibition ratio to a sample-free reference.
The compound BAYT 43-9006 was prepared on the basis of the description (Example 41) of WO 00/42012.

[4] = Solubility to fasted state simulated intestinal fluid; format: physicochemical; conditions: fassif, kinetic from dmso stock, fasted state simulated intestinal fluid (pH 6.5), 37° C.
Experimental: Method of Measuring Solubility to Fasted State Simulated Intestinal Fluid
To a 96-well plate, 2 μL of a dimethyl sulfoxide solution of the compound relating to the present invention or that of the compound BAY 43-9006 was poured at one time, respectively, and fasted state simulated intestinal fluid (pH 6.5) was added 200 μL by 200 μL, and the plate was shaken at 37° C. for 20 hours. The solution was filtered with a membrane filter and 101 μL of the filtrate was transferred to an UV plate, and 100 μL of a mixed solution of ethanol:water=2:1 was added thereto. On the other hand, as a standard solution, 2 μL of a dimethyl sulfoxide solution was added to a solution containing 4 μL of dimethyl sulfoxide, 400 μL of ethanol and 200 μL of water and the obtained solution was transferred 101 μL by 101 μL to the UV plate and to this UV plate, the simulated fasting bile-containing intestinal juice (pH 6.5) was added 100 μL by 100 μL. The solubility was calculated by the following equation. Solubility=(absorbance of sample solution-blank)/(absorbance of standard solution-blank)×[…]
165 μL is a concentration of the standard solution.
Composition of Fasted State Simulated Intestinal Fluid
Fasted state simulated intestinal fluid was prepared in accordance with E. Galia et al., Pharm. Res., 698, 1998.
To about 90 mL of water, 161 mg of taurocholic acid, 59 mg of L-α-phosphatidylcholine, 0.39 g of potassium dihydrogenphosphate and 0.77 g of potassium chloride were added and the pH of the mixture solution […] and the mixture solution was filtered with a membrane filter.

T1 sequence (P04049 349-648 limits assumed): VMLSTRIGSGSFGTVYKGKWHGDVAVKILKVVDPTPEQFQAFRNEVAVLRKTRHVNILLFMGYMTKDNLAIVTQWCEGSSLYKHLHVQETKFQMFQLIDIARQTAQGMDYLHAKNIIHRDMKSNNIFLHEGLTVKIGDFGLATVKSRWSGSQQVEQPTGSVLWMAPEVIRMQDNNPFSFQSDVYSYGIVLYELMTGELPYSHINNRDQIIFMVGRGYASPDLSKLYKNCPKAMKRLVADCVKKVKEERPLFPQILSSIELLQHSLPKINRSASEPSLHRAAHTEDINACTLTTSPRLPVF

IC50 [1] | IC50 [3] | solubility at 20 h [4] | Structure (SMILES) | IC50 [2] | IC50 (VEGF dependent HUVEC)
1200 nM |  |  | O=C(Nc1ccc(-n2cnc3cnccc32)cc1)Nc1ccc(Cl)c(C(F)(F)F)c1 [Table 1, Compound 1, 1-(4-chloro-3-(trifluoromethyl)phenyl)-3-(4-imidazo[4,5-c]pyridin-1-ylphenyl)urea] | 2100 nM | 92 nM
7300 nM |  |  | Nc1ncnc2c1ncn2-c1ccc(N(O)C(=O)Nc2ccc(Cl)c(C(F)(F)F)c2)cc1 [Table 1, Compound 49, 1-[4-(6-Aminopurin-9-yl)phenyl]-3-(4-chloro-3-(trifluoromethyl)phenyl)-1-hydroxyurea hydrochloride] | 4100 nM | 190 nM
3400 nM |  |  | CNc1ncnc2c1ncn2-c1ccc(N(O)C(=O)Nc2ccc(Cl)c(C(F)(F)F)c2)cc1 [Table 1, Compound 53, 3-(4-Chloro-3-(trifluoromethyl)phenyl)-1-hydroxy-1-[4-(6-(methylamino)pruin-9-yl)phenyl]urea] | 2800 nM | 440 nM
1100 nM |  |  | CNc1ncnc2c1ncn2-c1ccc(NC(=O)Nc2cccc(C(F)(F)F)c2)cc1 [Table 2, Compound 19, 1-[4-(6-(Methylamino)purin-9-yl)phenyl]-3-(3-(trifluoro-methyl)phenyl)urea] | 1900 nM | 57 nM
 | 69 nM | 238 µg/mL (≈ 431 µM) | C=Cc1nc2c(N)ncnc2n1-c1ccc(NC(=O)Nc2cc(CN3CCN(C)CC3)cc(C(F)(F)F)c2)cc1 [Table 2, Compound 28] |  | 
1800 nM |  |  | CNc1ncnc2c1ncn2-c1ccc(NC(=O)Nc2ccc(N(C)C)c(C(F)(F)F)c2)cc1 [Table 2, Compound 42, 1-(4-Dimethylamino-3-(trifluoromethyl)phenyl)-3-[4-(6-(methylamino)purin-9-yl)phenyl]urea] | 4000 nM | 56 nM
1800 nM |  |  | Nc1ncnc2c1ncn2-c1ccc(NC(=O)Nc2cc(Br)cc(C(F)(F)F)c2)cc1 [Table 2, Compound 43] | 3800 nM | 150 nM
240 nM |  |  | CNc1ncnc2c1ncn2-c1ccc(NC(=O)Nc2ccc(CN3CCN(C)CC3)c(C(F)(F)F)c2)cc1 [Table 2, Compound 46, 1-[4-(6-(Methylamino)purin-9-yl)phenyl]-3-[4-(4-methylpiperazin-1-ylmethyl)-3-(trifluoromethyl)phenyl]urea] | 130 nM | 2.5 nM
900 nM |  |  | CNc1ncnc2c1ncn2-c1ccc(NC(=O)Nc2ccc(CN3CCOCC3)c(C(F)(F)F)c2)cc1 [Table 2, Compound 47, 1-[4-(6-(Methylamino)purin-9-yl)phenyl]-3-(4-morpholin-4-ylmethyl-3-(trifluoromethyl)phenyl)urea] | 700 nM | 29 nM
2400 nM |  |  | CNc1ncnc2c1ncn2-c1ccc(NC(=O)Nc2cc(N(C)C)cc(C(F)(F)F)c2)cc1 [Table 2, Compound 48, 1-(3-Dimethylamino-5-(trifluoromethyl)phenyl)-3-[4-(6-(methylamino)purin-9-yl)phenyl]urea] | 3700 nM | 280 nM
1900 nM |  |  | CNc1ncnc2c1ncn2-c1ccc(NC(=O)Nc2ccc(OCCN3CCOCC3)c(C(F)(F)F)c2)cc1 [Table 2, Compound 53, 1-[4-(6-(Methylamino)purin-9-yl)phenyl]-3-[4-(2-morpholin-4-yl-ethoxy)-3-(trifluoromethyl)phenyl]urea] | 1700 nM | 650 nM
1200 nM |  |  | CNc1ncnc2c1ncn2-c1ccc(NC(=O)Nc2ccc(CCCN(C)C)c(C(F)(F)F)c2)cc1 [Table 2, Compound 74] | 900 nM | 83 nM
900 nM |  |  | CNc1ncnc2c1ncn2-c1ccc(NC(=O)Nc2ccc(CCCN3CCOCC3)c(C(F)(F)F)c2)cc1 [Table 2, Compound 76, 1-[4-(6-(Methylamino)purin-9-yl)phenyl]-3-[4-[3-morpholin-4-yl-propyl]-3-(trifluoromethyl)phenyl]-urea] | 1000 nM | 57 nM
 | 140 nM |  | CNc1ncnc2c1ncn2-c1ccc(NC(=O)Nc2ccc(CCCN3CCCCC3)c(C(F)(F)F)c2)cc1 [Table 2, Compound 78, 1-[4-(6-(Methylamino)purin-9-yl)phenyl]-3-[4-[3-piperidin-1-yl-propyl]-3-(trifluoromethyl)phenyl]-urea] |  | 
 | 270 nM |  | CNc1ncnc2c1ncn2-c1ccc(NC(=O)Nc2cc(OC3CCN(C)CC3)cc(C(F)(F)F)c2)cc1 [Table 2, Compound 91, 1-[4-(6-(Methylamino)purin-9-yl)phenyl]-3-[3-(1-methyl-piperidin-4-yloxy)-5-(trifluoromethyl)phenyl]-urea] |  | 
 | 51 nM |  | Nc1ncnc2ncn(-c3ccc(NC(=O)Nc4ccc(Cl)c(C(F)(F)F)c4)cc3)c12 [Table 3, Compound 1, 1-[4-(6-(Aminopurin-7-yl)phenyl)-3-(4-chloro-3-(trifluoromethyl)phenyl)urea hydrochloride] |  | 
 | 53 nM | 219 µg/mL (≈ 417 µM) | CN1CCN(Cc2cc(NC(=O)Nc3ccc(-n4cnc5ncnc(N)c54)cc3)cc(C(F)(F)F)c2)CC1 [Table 3, Compound 4] |  | 
 | 85 nM |  | CN(C)CCNC(=O)c1cc(NC(=O)Nc2ccc(-n3cnc4ncnc(N)c43)cc2)cc(C(F)(F)F)c1 [Table 3, Compound 9, 3-{3-[4-(6-Aminopurin-7-yl)phenyl]ureido}-N-(2-(dimethylamino)ethyl)-5-(trifluoromethyl)benzamide] |  | 
300 nM |  |  | CCN1CCN(Cc2ccc(NC(=O)Nc3ccc(-n4cnc5c(NC)ncnc54)cc3)cc2C(F)(F)F)CC1 [Table 3, Compound 14, 1-[4-(4-Ethyl-piperazin-1-ylmethyl)-3-(trifluoromethyl)phenyl]-3-[4-(6-(methylamino)purin-9-yl)phenyl]urea] | 200 nM | 4 nM
 | 170 nM |  | CNc1ncnc2c1ncn2-c1ccc(NC(=O)Nc2cc(CCN3CCCCC3)cc(C(F)(F)F)c2)cc1 [Table 3, Compound 30, 1-[4-(6-(Methylamino)purin-9-yl)phenyl]-3-[3-(2-piperidin-1-yl-ethyl)-5-(trifluoromethyl)phenyl]urea] |  | 
 | 130 nM |  | CNc1ncnc2c1ncn2-c1ccc(NC(=O)Nc2cc(CCN3CCCC3)cc(C(F)(F)F)c2)cc1 [Table 3, Compound 31, 1-[4-(6-(Methylamino)purin-9-yl)phenyl]-3-[3-(2-pyrrolidin-1-yl-ethyl)-5-(trifluoromethyl)phenyl]urea] |  | 
 | 73 nM | 79 µg/mL (≈ 147 µM) | CNc1ncnc2c1ncn2-c1ccc(NC(=O)Nc2cc(CCCN3CCCC3)cc(C(F)(F)F)c2)cc1 [Table 3, Compound 45, 1-[4-(6-(Methylamino)purin-9-yl)phenyl]-3-[3-(3-pyrrolidin-1-yl-propyl)-5-(trifluoromethyl)phenyl]-urea] |  | 

— patent publication US8609656B2, “Heteroarylphenylurea derivative” (Chugai Seiyaku Kabushiki Kaisha, priority 2004, dated 2013)
